From article PMC9027920, “Development of New Thiophene-Containing Triaryl Pyrazoline Derivatives as PI3Kγ Inhibitors” (Molecules, 2022)

Key:
[1] = cytotoxicity, MTT, L02 cells; format: cell-based; settings: human, L02 cells (human normal hepatocyte line)
Description: (§1) In this section, the anti-proliferation activity of the synthesized compounds 3a–3t was evaluated. Herein, HeLa (human epithelial cervical cancer cell line), HepG2 (human hepatoellular carcinoma cell line) and L02 (human normal hepatocyte line) cells were used. According to the affection on L02 cells, most of the tested compounds were low-toxic. […] Basically, many of the compounds in this series could inhibit the growth of HeLa and HepG2 cells effectively. The anti-proliferation inhibitory activity and the enzymatic inhibition potency indicated the consistent tendencies; the SAR of the observed anti-proliferation activity was also similar to that of the enzymatic inhibition, especially that of PI3Kγ inhibition; thus, the cellular inhibition might be caused by the effect on PI3K. […] Thus, HepG2 cells were selected to conduct further investigations at the protein level.
(§2) In this section, the cells included HeLa (human epithelial cervical cancer cell line), HepG2 (human hepatocellular cancer cell line) and L02 (human normal hepatocyte line) to evaluate the anti-proliferation activity of the synthesized compounds. The cells were cultured in Dulbecco’s modified eagle medium (DMEM, Hyclone) with the addition of 10% fetal bovine serum (FBS, BI), 2 mmol/L L-glutamine, 100 units/mL penicillin-streptomycin (Sigma-Aldrich, Saint Louis, MO, USA), […] (Hyclone, Logan, UT, USA). The environment was 5% CO2 contained atmosphere at 37 °C. The tests of anti-proliferative activity were conducted under a standard method with the typical dye 3-(4,5-dimethylthiazol-2-yl)-2,5-diphenyltetrazolium bromide (MTT) in triplicate. The LX300 Epson Diagnostic micro-plate reader (Nagano, Japan) was used to record the absorbance at 570 nm (OD570).

[2] = system: PI3K-mediated Akt phosphorylation in HepG2 cells; assay: Western blot of Akt and p-Akt in HepG2 cells; format: cell-based, human; settings: 24 h, 0, 0.25, 0.50, 1.00 μM, with increasing concentration
Description: For the evaluation of PI3Kγ activity, the downstream signal of PI3Kγ should be checked. Commonly, in the PI3K-Akt-mTOR pathway, the activation of PI3K mediated the phosphorylation of Akt and then triggered the following biological events. Herein, Western blot was conducted to visualize the expression levels of Akt and p-Akt (phosphorylated Akt) in HepG2 cells after incubation with various concentrations of the top hit 3s (Figure 2). GAPDH was used as the internal reference to guarantee cell status. […] This meant that compound 3s has the potential to cause dose-dependent blocking on the PI3K-mediated Akt phosphorylation.
According to the results of the anti-proliferation assay, HepG2 cells were chosen to be incubated with the compound 3s for 24 h. The cells were then trypsinized and collected. Afterwards, the extracting of the total proteins was conducted with a 1 × RIPA lysis buffer (1% NP-40, 50 mM Tris-HCl, 150 mM NaCl, 0.25% deoxycholic acid, 1 mM EDTA containing protease inhibitors PMSF, pH 7.4,) (Amresco, Solon, OH, USA). […]
Figure 2 (A) The expression levels of Akt, phosphorylated Akt (p-Akt) and GAPDH in HepG2 cells incubated with various concentrations of compound 3s (0, 0.25, 0.50, 1.00 μM); (B) Quantitation analysis of the p-Akt level. Data were expressed as Mean ± SD (n = 3). * p < 0.05, ** p < 0.01 and *** p < 0.005 vs. the control.

[3] = system: HeLa (human epithelial cervical cancer cell line) cells; assay: anti-proliferation assay, MTT, HeLa cells; format: cell-based
Description: as §1, §2

PI3Kα = target: T1, PI3Kα (Homo sapiens, UniProt P42336); assay: competitive fluorescence polarization kinase activity assay, PI3Kα; format: biochemical; settings: fluorescence polarization kinase kit
T1 construct: purchased Perkin–Elmer
T1 sequence (P42336 whole entry, species assumed): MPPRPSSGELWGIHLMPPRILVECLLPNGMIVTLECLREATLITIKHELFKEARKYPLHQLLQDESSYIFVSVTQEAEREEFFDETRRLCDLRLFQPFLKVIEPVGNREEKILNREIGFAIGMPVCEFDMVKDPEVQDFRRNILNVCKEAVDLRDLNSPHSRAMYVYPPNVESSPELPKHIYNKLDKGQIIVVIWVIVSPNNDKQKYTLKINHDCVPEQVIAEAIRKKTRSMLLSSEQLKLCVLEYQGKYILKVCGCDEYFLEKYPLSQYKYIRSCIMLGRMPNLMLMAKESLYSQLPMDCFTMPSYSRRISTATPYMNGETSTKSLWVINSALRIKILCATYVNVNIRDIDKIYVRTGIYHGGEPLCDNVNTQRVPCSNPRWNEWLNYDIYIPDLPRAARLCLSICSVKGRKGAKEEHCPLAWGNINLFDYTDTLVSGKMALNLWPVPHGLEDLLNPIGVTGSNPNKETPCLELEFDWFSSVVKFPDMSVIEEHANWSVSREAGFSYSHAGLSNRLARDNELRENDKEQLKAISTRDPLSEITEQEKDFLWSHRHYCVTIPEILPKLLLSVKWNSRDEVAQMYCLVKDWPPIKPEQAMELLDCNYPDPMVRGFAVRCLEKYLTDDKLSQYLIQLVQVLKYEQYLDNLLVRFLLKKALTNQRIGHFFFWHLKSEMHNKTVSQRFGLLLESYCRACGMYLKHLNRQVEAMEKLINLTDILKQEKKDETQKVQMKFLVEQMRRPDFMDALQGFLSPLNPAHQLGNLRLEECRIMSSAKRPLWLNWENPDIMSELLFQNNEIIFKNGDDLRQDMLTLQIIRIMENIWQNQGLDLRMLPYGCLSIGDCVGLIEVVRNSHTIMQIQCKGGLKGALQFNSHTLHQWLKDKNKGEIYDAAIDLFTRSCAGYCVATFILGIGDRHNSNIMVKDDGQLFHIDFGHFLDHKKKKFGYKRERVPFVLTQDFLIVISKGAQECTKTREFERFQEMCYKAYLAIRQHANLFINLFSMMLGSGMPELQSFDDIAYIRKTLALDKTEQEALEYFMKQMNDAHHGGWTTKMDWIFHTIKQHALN
T1 sequence (P27986 whole entry partner, species assumed): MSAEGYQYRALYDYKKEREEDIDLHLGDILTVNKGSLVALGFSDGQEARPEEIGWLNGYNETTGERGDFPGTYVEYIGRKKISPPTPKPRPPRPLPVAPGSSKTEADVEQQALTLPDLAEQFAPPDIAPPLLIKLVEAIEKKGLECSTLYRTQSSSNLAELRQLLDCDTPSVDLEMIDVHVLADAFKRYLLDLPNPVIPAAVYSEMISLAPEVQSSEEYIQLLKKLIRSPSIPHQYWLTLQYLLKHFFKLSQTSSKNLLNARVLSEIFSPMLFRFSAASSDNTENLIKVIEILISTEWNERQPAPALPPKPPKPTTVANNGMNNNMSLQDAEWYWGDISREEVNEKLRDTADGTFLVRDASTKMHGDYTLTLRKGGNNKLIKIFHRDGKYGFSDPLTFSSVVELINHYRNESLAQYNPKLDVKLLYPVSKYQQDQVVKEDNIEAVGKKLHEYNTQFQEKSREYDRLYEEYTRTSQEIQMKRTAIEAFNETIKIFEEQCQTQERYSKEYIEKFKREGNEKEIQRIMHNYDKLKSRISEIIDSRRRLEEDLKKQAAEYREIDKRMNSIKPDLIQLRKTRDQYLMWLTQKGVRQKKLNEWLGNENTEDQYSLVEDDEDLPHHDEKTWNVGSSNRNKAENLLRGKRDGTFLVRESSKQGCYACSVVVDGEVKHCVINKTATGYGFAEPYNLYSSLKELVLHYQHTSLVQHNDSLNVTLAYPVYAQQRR
From the text: (§3) Initially, we directly tested the inhibition potency of the synthesized compounds on PI3K by using competitive fluorescence polarization kinase kits, as mentioned in previous investigations. […] According to the significance and research maturity of the isoforms as referenced, the PI3Kα and PI3Kγ isoforms were preliminarily included here.
(§4) The competitive fluorescence polarization kinase activity assay was used to test the inhibition potency on PI3K, as mentioned in previous investigations. In general, following the instruction of the Kit (Perkin–Elmer, Waltham, MA, USA), the 10 μL scale of PI3K activity reaction was conducted with the substrate diC8-PI(4,5)P2 in a solution containing 2.5 mM MgCl2, 5 mM HEPES, […] and 10 mM DTT at pH 7.0. Into the 10 μL reaction wells with 50 ng enzyme and […], different concentrations of the tested compounds were added, respectively. The mixture was incubated at room temperature for 3 h, and the reactions were then quenched. Afterwards, the phosphoinositide binding protein and the fluorescent dye-labeled phosphoinositide tracer were added in sequence. In the dark environment in 384-well black nonbinding plates (Corning, Corning, NY, USA), the further incubation lasted for 1 h. With appropriate filters, the polarization values of the corresponding dye were recorded to calculate the enzymatic activity of PI3K in this reacting procedure. This assay was universal for evaluating the activity of different PI3K isoforms.

[4] = system: HepG2 (human hepatocellular cancer cell line) cells; assay: anti-proliferation assay, MTT, HepG2 cells; format: cell-based; settings: read-out: GI50 HepG2γ
Description: as §1, §2

PI3Kγ = target: T2, PI3Kγ (Homo sapiens, UniProt P48736); assay: competitive fluorescence polarization kinase activity assay, PI3Kγ; format: biochemical
T2 construct: purchased Perkin–Elmer
T2 sequence (P48736 whole entry, species assumed): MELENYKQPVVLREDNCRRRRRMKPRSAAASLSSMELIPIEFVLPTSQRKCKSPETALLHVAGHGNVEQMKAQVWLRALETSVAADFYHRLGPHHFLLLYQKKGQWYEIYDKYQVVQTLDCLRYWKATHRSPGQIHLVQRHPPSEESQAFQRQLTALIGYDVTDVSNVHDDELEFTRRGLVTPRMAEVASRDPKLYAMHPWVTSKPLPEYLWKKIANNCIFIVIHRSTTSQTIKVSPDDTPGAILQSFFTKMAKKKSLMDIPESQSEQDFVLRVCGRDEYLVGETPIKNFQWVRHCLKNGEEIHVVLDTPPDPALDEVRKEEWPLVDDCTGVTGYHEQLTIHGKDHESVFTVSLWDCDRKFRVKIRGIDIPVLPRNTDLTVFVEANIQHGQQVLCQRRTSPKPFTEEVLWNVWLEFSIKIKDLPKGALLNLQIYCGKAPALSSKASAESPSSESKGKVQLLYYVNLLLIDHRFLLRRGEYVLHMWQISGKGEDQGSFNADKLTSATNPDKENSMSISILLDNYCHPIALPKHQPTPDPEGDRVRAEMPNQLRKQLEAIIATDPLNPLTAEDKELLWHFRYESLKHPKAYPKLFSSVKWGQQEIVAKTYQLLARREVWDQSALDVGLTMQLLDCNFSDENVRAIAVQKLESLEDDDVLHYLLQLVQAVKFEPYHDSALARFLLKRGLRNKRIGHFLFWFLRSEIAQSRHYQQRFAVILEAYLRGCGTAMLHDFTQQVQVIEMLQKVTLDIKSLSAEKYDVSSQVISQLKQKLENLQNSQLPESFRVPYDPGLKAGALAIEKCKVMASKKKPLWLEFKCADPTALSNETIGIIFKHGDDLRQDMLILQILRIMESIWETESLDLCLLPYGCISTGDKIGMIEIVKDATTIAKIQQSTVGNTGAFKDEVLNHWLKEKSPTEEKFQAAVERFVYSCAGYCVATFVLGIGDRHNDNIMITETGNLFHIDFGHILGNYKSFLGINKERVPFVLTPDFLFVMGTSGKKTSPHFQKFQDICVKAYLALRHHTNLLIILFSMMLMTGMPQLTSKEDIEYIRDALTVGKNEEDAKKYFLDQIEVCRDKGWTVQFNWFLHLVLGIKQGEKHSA
From the text: as §3, §4

HCT-116 cells = system: HCT-116 cells; parameters: method as in doi:10.1134/S1068162020030061; settings: cited from earlier work
CACO-2 cells = system: CACO-2 cells; parameters: method as in doi:10.1134/S1068162020030061; settings: cited from earlier work
BHK cells = system: BHK cells; parameters: method as in doi:10.1134/S1068162020030061; settings: cited from earlier work

GI50 [3] | IC50 (PI3Kα) | GI50 [4] | melting point | IC50 (PI3Kγ; fluorescence polarization kinase kit) | selectivity index (PI3Kγ; ratio of the IC50 values for PI3Kα and PI3Kγ) | SMILES | CC50 [1] | Akt level [2] | p-Akt level [2] | anti-tumor activity (HCT-116 cells) | anti-tumor activity (CACO-2 cells) | cytotoxicity (BHK cells)
13.7 ± 1.1 µM | 42.6 ± 2.9 µM | 12.9 ± 1.3 µM | 138 to 140 °C | 0.066 ± 0.005 µM | 645 | COc1ccc(C(=O)N2N=C(c3ccc4c(c3)OCO4)CC2c2cccs2)cc1OC (stereo not drawn) [3s, (3-(Benzo[d][1,3]dioxol-5-yl)-5-(thiophen-2-yl)-4,5-dihydro-1H-pyrazol-1-yl)(3,4-dimethoxyphenyl)methanone] | 181 ± 9 µM | almost remained unchanged | obvious decrease |  |  | 
 |  |  |  |  |  | CCOC(=O)c1sc(N2N=C(c3cccs3)CC2c2ccccc2)nc1C (stereo not drawn) [ethyl-4-methyl-2-(5-phenyl-3-(thiophen-2-yl)-4,5-dihydropyrazol-1-yl)thiazole-5-carboxylate] |  |  |  | potent anti-tumor activity | potent anti-tumor activity | no cytotoxicity
